In paper PMC13266999, “Designing Antibiotics with Inherent Resistance to Efflux as a Strategy to Revive Discovery against Multidrug-Resistant Pathogens” (Journal of Medicinal Chemistry, 2026):
Where “and” joins values, the source holds several entries; their conditions need not be identical. Equal values may be shown once.

Assays:
5-HT3 (h) = target: T1, 5-HT3 (h) (Homo sapiens, UniProt P46098); test: SafetyScreen44; settings: antagonist radioligand, specific binding, 1.0E-05 M
T1 construct: purchased Eurofins (SafetyScreen44)
Method: (§1) Off-target pharmacology was evaluated using the Eurofins SafetyScreen44 in vitro panel. […] Binding assays were performed using radioligand displacement, and enzyme or uptake assays measured inhibition of control activity using validated detection methods (scintillation counting, fluorimetry or photometry). Responses were expressed as percent inhibition of control binding or activity. Based on Eurofins interpretation guidelines, effects ≥50% were considered significant, effects between 25% and 50% weak to moderate, and effects <25% were not considered biologically relevant.

kappa (KOP) = target: T2, kappa (KOP) (Rattus norvegicus, UniProt P34975); test: SafetyScreen44; settings: agonist radioligand, specific binding, 1.0E-05 M
T2 construct: purchased Eurofins (SafetyScreen44)
Method: as §1

M2 (h) = target: T3, M2 (h) (Homo sapiens, UniProt P08172); test: SafetyScreen44; settings: antagonist radioligand, specific binding, 1.0E-05 M
T3 construct: purchased Eurofins (SafetyScreen44)
Method: as §1

5-HT2B (h) = target: T4, 5-HT2B (h) (Homo sapiens, UniProt P41595); test: SafetyScreen44; settings: agonist radioligand, specific binding, 1.0E-05 M
T4 construct: purchased Eurofins (SafetyScreen44)
Method: as §1

[1] = target: T5, norepinephrine transporter (h) (Homo sapiens, UniProt P23975); test: SafetyScreen44; settings: antagonist radioligand, specific binding, 1.0E-05 M
T5 construct: purchased Eurofins (SafetyScreen44)
Method: as §1

GR (h) = target: T6, GR (h) (Homo sapiens, UniProt P04150); test: SafetyScreen44; settings: agonist radioligand, specific binding, 1.0E-05 M
T6 construct: purchased Eurofins (SafetyScreen44)
Method: as §1

CB1 (h) = target: T7, CB1 (h) (Homo sapiens, UniProt P21554); test: SafetyScreen44; settings: agonist radioligand, specific binding, 1.0E-05 M
T7 construct: purchased Eurofins (SafetyScreen44 panel) assay 36
Method: as §1

CB2 (h) = target: T8, CB2 (h) (Homo sapiens, UniProt P34972); test: SafetyScreen44; settings: agonist radioligand, specific binding, 1.0E-05 M
T8 construct: purchased Eurofins (SafetyScreen44)
Method: as §1

[2] = target: T9, N neuronal alpha 4beta 2 (h) (Homo sapiens, UniProt P17787+P43681); test: SafetyScreen44; settings: agonist radioligand, specific binding, 1.0E-05 M
T9 construct: purchased Eurofins (SafetyScreen44)
Method: as §1

H2 (h) = target: T10, H2 (h) (Homo sapiens, UniProt P25021); test: SafetyScreen44; settings: antagonist radioligand, specific binding, 1.0E-05 M
T10 construct: purchased Eurofins (SafetyScreen44)
Method: as §1

BZD (central) = test: SafetyScreen44; settings: agonist radioligand, specific binding, 1.0E-05 M
Method: as §1

mu (MOP) (h) = target: T11, mu (MOP) (h) (Homo sapiens, UniProt P35372); test: SafetyScreen44; settings: agonist radioligand, specific binding, 1.0E-05 M
T11 construct: purchased Eurofins (SafetyScreen44)
Method: as §1

M3 (h) = target: T12, M3 (h) (Homo sapiens, UniProt P20309); test: SafetyScreen44; settings: antagonist radioligand, specific binding, 1.0E-05 M
T12 construct: purchased Eurofins (SafetyScreen44)
Method: as §1

D1 (h) = target: T13, D1 (h) (Homo sapiens, UniProt P21728); test: SafetyScreen44; settings: antagonist radioligand, specific binding, 1.0E-05 M
T13 construct: purchased Eurofins (SafetyScreen44)
Method: as §1

V1a (h) = target: T14, V1a (h) (Homo sapiens, UniProt P37288); test: SafetyScreen44; settings: agonist radioligand, specific binding, 1.0E-05 M
T14 construct: purchased Eurofins (SafetyScreen44)
Method: as §1

[3] = system: Ca2+ channel (L, dihydropyridine site); test: SafetyScreen44; settings: antagonist radioligand, specific binding, 1.0E-05 M
Method: as §1

alpha 2A (h) = target: T15, alpha 2A (h) (Homo sapiens, UniProt P08913); test: SafetyScreen44; settings: antagonist radioligand, specific binding, 1.0E-05 M
T15 construct: purchased Eurofins (SafetyScreen44)
Method: as §1

ETA (h) = target: T16, ETA (h) (Homo sapiens, UniProt P25101); test: SafetyScreen44; settings: agonist radioligand, specific binding, 1.0E-05 M
T16 construct: purchased Eurofins (SafetyScreen44)
Method: as §1

MAO-A = target: T17, MAO-A (Rattus norvegicus, UniProt P21396); test: SafetyScreen44; settings: antagonist radioligand, specific binding, 1.0E-05 M
T17 construct: purchased Eurofins (SafetyScreen44)
Method: as §1

delta (DOP) (h) = target: T18, delta (DOP) (h) (Homo sapiens, UniProt P41143); test: SafetyScreen44; settings: agonist radioligand, specific binding, 1.0E-05 M
T18 construct: purchased Eurofins (SafetyScreen44)
Method: as §1

5-HT transporter (h) = target: T19, 5-HT transporter (h) (Homo sapiens, UniProt P31645); test: SafetyScreen44; settings: antagonist radioligand, specific binding, 1.0E-05 M
T19 construct: purchased Eurofins (SafetyScreen44)
Method: as §1

alpha 1A (h) = target: T20, alpha 1A (h) (Homo sapiens, UniProt P35348); test: SafetyScreen44; settings: antagonist radioligand, specific binding, 1.0E-05 M
T20 construct: purchased Eurofins (SafetyScreen44)
Method: as §1

dopamine transporter (h) = target: T21, dopamine transporter (h) (Homo sapiens, UniProt Q01959); test: SafetyScreen44; settings: antagonist radioligand, specific binding, 1.0E-05 M
T21 construct: purchased Eurofins (SafetyScreen44)
Method: as §1

5-HT1B = target: T22, 5-HT1B (Rattus norvegicus, UniProt P28564); test: SafetyScreen44; settings: antagonist radioligand, specific binding, 1.0E-05 M
T22 construct: purchased Eurofins (SafetyScreen44)
Method: as §1

5-HT2A (h) = target: T23, 5-HT2A (h) (Homo sapiens, UniProt P28223); test: SafetyScreen44; settings: agonist radioligand, specific binding, 1.0E-05 M
T23 construct: purchased Eurofins (SafetyScreen44)
Method: as §1

NMDA = test: SafetyScreen44; settings: antagonist radioligand, specific binding, 1.0E-05 M
Method: as §1

A2A (h) = target: T24, A2A (h) (Homo sapiens, UniProt P29274); test: SafetyScreen44; settings: agonist radioligand, specific binding, 1.0E-05 M
T24 construct: purchased Eurofins (SafetyScreen44)
Method: as §1

beta 2 (h) = target: T25, beta 2 (h) (Homo sapiens, UniProt P07550); test: SafetyScreen44; settings: antagonist radioligand, specific binding, 1.0E-05 M
T25 construct: purchased Eurofins (SafetyScreen44)
Method: as §1

D2S (h) = target: T26, D2S (h) (Homo sapiens, UniProt P14416); test: SafetyScreen44; settings: agonist radioligand, specific binding, 1.0E-05 M
T26 construct: purchased Eurofins (SafetyScreen44)
Method: as §1

M1 (h) = target: T27, M1 (h) (Homo sapiens, UniProt P11229); test: SafetyScreen44; settings: antagonist radioligand, specific binding, 1.0E-05 M
T27 construct: purchased Eurofins (SafetyScreen44)
Method: as §1

beta 1 (h) = target: T28, beta 1 (h) (Homo sapiens, UniProt P08588); test: SafetyScreen44; settings: agonist radioligand, specific binding, 1.0E-05 M
T28 construct: purchased Eurofins (SafetyScreen44)
Method: as §1

CCK1 (CCKA) (h) = target: T29, CCK1 (CCKA) (h) (Homo sapiens, UniProt P32238); test: SafetyScreen44; settings: agonist radioligand, specific binding, 1.0E-05 M
T29 construct: purchased Eurofins (SafetyScreen44)
Method: as §1

KV channel = test: SafetyScreen44; settings: antagonist radioligand, specific binding, 1.0E-05 M
Method: as §1

5-HT1A (h) = target: T30, 5-HT1A (h) (Homo sapiens, UniProt P08908); test: SafetyScreen44; settings: agonist radioligand, specific binding, 1.0E-05 M
T30 construct: purchased Eurofins (SafetyScreen44)
Method: as §1

[4] = target: T31, Potassium Channel hERG (human) (Homo sapiens, UniProt Q12809); test: SafetyScreen44; settings: [3H] Dofetilide, specific binding, 1.0E-05 M
T31 construct: purchased Eurofins (SafetyScreen44)
Method: as §1

AR (h) = test: SafetyScreen44; design: species or system human; settings: agonist radioligand, specific binding, 1.0E-05 M
Method: as §1

in vivo = settings: male, mouse, po
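Throughout, for MTD: male ICR mice given oral doses under a stepwise escalation scheme to find the highest tolerated dose.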

T2 sequence (P34975 whole entry): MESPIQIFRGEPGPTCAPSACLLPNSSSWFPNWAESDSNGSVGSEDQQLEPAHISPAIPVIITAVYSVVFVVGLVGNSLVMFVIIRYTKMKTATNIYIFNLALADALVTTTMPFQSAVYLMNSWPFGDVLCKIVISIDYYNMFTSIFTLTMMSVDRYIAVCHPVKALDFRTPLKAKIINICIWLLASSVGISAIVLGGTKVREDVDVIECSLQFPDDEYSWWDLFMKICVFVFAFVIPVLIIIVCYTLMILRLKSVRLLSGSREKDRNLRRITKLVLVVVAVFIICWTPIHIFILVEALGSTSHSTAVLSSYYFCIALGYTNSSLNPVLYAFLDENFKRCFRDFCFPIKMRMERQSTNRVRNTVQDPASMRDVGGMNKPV
T24 sequence (P29274 whole entry): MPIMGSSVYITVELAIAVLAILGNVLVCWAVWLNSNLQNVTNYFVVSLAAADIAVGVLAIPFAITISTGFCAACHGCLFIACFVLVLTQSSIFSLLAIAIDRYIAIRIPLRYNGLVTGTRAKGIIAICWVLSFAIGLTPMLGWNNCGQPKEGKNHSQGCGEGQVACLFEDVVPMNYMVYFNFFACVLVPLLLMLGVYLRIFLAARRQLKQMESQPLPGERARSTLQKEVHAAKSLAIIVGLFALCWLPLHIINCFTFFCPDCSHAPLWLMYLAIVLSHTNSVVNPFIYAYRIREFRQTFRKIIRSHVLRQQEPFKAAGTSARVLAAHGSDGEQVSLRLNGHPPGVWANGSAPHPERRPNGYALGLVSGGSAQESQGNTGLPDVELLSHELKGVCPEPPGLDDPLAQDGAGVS
T23 sequence (P28223 whole entry): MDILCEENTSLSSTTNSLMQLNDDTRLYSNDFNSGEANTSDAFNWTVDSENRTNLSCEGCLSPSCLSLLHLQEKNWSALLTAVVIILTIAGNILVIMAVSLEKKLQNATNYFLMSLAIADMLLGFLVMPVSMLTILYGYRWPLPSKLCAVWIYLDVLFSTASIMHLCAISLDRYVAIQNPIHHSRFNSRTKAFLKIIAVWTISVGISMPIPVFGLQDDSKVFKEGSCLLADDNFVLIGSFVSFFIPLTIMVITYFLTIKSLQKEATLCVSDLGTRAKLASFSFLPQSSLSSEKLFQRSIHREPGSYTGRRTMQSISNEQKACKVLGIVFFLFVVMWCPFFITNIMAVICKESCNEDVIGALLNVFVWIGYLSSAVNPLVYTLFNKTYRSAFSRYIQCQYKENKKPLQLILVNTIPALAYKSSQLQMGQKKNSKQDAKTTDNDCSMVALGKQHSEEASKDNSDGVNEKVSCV
T22 sequence (P28564 whole entry): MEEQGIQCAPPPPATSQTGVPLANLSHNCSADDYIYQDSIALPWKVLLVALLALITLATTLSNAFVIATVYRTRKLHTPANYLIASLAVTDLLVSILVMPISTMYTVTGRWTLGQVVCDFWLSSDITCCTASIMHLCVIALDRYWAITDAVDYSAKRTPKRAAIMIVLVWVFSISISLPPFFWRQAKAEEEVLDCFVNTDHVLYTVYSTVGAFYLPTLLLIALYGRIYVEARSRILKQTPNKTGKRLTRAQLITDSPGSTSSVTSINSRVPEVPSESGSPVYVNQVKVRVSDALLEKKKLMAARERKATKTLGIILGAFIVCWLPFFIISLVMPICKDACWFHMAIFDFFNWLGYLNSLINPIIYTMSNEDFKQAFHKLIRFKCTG
T26 sequence (P14416 1-414 isoform P14416-2): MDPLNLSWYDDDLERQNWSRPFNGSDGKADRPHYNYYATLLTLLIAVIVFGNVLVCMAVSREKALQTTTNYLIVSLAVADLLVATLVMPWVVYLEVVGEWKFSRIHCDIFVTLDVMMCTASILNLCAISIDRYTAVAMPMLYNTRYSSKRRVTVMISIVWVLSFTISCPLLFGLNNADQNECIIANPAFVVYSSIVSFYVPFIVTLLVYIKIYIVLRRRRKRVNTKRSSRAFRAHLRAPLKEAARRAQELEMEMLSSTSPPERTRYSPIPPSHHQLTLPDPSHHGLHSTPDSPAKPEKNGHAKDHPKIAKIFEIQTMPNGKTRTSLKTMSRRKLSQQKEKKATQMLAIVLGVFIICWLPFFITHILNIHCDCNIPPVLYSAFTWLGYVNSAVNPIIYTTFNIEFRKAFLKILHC
T30 sequence (P08908 whole entry): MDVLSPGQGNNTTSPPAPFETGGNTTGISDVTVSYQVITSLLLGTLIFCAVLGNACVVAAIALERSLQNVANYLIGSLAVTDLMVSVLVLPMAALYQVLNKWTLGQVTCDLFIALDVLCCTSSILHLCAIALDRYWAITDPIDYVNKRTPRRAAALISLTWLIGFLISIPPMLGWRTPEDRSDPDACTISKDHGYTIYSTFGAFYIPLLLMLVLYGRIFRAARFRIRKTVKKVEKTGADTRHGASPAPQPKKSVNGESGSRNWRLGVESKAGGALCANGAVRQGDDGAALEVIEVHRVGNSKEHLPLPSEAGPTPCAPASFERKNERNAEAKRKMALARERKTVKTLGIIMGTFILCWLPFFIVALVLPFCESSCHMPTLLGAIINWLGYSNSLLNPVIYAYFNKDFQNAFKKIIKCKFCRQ
T9 sequence (P43681 29-627 limits assumed): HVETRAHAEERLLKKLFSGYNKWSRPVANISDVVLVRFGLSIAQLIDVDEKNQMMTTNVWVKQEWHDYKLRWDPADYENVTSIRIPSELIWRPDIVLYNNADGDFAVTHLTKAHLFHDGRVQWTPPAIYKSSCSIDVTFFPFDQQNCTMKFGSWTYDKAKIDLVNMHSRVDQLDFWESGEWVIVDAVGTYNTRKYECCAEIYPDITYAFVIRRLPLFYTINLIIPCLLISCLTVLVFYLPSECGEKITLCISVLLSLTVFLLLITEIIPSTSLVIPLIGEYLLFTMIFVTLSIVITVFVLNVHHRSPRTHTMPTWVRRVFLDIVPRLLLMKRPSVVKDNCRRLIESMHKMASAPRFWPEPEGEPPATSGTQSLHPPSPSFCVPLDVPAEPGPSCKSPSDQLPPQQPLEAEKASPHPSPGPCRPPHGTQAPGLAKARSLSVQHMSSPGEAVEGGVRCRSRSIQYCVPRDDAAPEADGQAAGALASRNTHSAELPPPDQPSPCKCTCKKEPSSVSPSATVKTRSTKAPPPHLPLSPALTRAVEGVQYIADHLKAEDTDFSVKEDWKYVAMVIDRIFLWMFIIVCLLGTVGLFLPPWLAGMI
T9 sequence (P17787 26-502): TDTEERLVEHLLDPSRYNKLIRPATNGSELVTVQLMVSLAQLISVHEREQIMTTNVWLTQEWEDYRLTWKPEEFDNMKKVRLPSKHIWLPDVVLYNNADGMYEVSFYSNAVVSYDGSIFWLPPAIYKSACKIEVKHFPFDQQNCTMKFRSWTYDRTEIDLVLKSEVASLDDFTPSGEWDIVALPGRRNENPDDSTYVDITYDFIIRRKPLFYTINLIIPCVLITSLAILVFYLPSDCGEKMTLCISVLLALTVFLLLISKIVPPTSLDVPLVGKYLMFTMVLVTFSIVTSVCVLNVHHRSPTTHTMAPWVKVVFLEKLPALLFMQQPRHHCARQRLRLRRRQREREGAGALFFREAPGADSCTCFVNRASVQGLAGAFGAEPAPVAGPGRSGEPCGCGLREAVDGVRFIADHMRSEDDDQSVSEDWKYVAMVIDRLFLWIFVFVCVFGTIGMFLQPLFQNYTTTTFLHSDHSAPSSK
T4 sequence (P41595 whole entry): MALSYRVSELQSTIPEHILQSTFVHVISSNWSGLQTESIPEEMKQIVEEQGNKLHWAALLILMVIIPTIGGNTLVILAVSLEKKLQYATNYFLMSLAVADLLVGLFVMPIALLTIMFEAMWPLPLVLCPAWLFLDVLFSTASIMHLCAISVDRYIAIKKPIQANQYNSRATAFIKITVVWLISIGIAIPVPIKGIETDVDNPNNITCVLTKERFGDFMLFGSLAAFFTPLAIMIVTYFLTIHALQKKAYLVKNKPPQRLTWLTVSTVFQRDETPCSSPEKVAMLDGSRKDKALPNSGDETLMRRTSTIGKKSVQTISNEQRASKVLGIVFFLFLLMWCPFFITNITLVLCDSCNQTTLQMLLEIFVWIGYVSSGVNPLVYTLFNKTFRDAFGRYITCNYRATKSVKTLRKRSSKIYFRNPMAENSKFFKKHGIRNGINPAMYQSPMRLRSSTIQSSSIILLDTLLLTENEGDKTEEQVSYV
T17 sequence (P21396 whole entry): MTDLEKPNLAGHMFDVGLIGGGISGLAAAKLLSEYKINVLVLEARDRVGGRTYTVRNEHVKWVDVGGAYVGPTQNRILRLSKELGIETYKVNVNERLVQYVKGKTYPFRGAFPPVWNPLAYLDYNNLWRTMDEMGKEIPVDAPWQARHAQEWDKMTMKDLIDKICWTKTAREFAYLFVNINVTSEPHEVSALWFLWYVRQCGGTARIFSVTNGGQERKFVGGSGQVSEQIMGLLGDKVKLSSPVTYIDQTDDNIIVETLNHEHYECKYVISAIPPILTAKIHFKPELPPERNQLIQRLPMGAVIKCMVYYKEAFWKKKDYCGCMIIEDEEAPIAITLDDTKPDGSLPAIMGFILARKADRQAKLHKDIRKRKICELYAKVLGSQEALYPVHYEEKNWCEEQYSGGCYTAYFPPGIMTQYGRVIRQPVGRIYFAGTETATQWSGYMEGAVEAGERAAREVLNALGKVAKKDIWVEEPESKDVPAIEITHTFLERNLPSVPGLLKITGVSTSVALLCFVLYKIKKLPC
T11 sequence (P35372 whole entry): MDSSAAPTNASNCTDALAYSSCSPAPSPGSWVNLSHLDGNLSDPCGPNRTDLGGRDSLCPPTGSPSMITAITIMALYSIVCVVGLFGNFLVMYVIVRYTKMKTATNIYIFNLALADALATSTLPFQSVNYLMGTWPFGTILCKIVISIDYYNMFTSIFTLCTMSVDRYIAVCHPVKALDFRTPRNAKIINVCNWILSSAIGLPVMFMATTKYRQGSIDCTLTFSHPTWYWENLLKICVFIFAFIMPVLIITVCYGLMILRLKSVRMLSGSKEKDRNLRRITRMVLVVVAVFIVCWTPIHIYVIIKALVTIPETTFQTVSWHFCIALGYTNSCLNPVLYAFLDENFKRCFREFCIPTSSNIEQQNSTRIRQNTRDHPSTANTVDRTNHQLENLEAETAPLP

## Cc1cc(C)nc(N[C@@H]2CCN(c3c(F)cc4c(=O)c(C(=O)O)cn5c4c3OC[C@@H]5C)C2)n1 [Compound 50, (S)-10-((R)-3-((4,6-Dimethylpyrimidin-2-yl)amino)pyrrolidin-1-yl)-9-fluoro-3-methyl-7-oxo-2,3-dihydro-7H-[1,4]oxazino[2,3,4-ij]quinoline-6-carboxylic acid]
5-HT3 (h)
  inhibition at 10 µM: 7.02%
Kappa (KOP)
  inhibition at 10 µM: 20.1%
M2 (h)
  inhibition at 10 µM: 62.8%
5-HT2B (h)
  inhibition at 10 µM: 9.78%
[1]
  inhibition at 10 µM: 2.06%
GR (h)
  inhibition at 10 µM: 9.19%
CB1 (h)
  inhibition at 10 µM: -8.28%
CB2 (h)
  inhibition at 10 µM: 0.988%
[2]
  inhibition at 10 µM: 0.422%
H2 (h)
  inhibition at 10 µM: -9.63%
BZD (central)
  % Inhibition: 22.3569%
Mu (MOP) (h)
  inhibition at 10 µM: 0.499%
M3 (h)
  inhibition at 10 µM: 3.56%
D1 (h)
  inhibition at 10 µM: -5.66%
V1a (h)
  inhibition at 10 µM: 9.53%
[3]
  % Inhibition: -7.1517%
Alpha 2A (h)
  inhibition at 10 µM: 23.5%
ETA (h)
  inhibition at 10 µM: 0.266%
MAO-A
  inhibition at 10 µM: 15%
Delta (DOP) (h)
  inhibition at 10 µM: 1.77%
5-HT transporter (h)
  inhibition at 10 µM: 2.23%
Alpha 1A (h)
  inhibition at 10 µM: 6.96%
Dopamine transporter (h)
  inhibition at 10 µM: 22.6%
5-HT1B
  inhibition at 10 µM: 10.2%
5-HT2A (h)
  inhibition at 10 µM: 41.5%
NMDA
  % Inhibition: -5.137%
A2A (h)
  % Inhibition: 82.8099% and 82.8%
Beta 2 (h)
  inhibition at 10 µM: -4.15%
D2S (h)
  inhibition at 10 µM: -3.93%
M1 (h)
  inhibition at 10 µM: 25.5%
Beta 1 (h)
  inhibition at 10 µM: 12.5%
CCK1 (CCKA) (h)
  inhibition at 10 µM: -39.6%
KV channel
  % Inhibition: 3.113%
5-HT1A (h)
  inhibition at 10 µM: -2.72%
[4]
  % Inhibition: -1.132%
AR (h)
  % Inhibition: 3.169%
In vivo
  MTD at 72 h: ≥ 400 mg/kg

## C[C@H]1COc2c(N3CC[C@@H](Nc4ncccn4)C3)c(F)cc3c(=O)c(C(=O)O)cn1c23 [Compound 46, (S)-9-Fluoro-3-methyl-7-oxo-10-((R)-3-(pyrimidin-2-ylamino)pyrrolidin-1-yl)-2,3-dihydro-7H-[1,4]oxazino[2,3,4-ij]quinoline-6-carboxylic acid]
5-HT3 (h)
  % Inhibition: -4.708%
Kappa (KOP)
  % Inhibition: 27.3513% and 27.4%
M2 (h)
  % Inhibition: 1.066%
5-HT2B (h)
  % Inhibition: 5.374%
[1]
  % Inhibition: -6.471%
GR (h)
  % Inhibition: 3.456%
CB1 (h)
  % Inhibition: 1.857%
CB2 (h)
  % Inhibition: 0%
[2]
  inhibition at 10 µM: -41.8%
H2 (h)
  % Inhibition: -40.1709%
BZD (central)
  % Inhibition: -44.8289%
Mu (MOP) (h)
  % Inhibition: 6.535%
M3 (h)
  % Inhibition: 2.273%
D1 (h)
  inhibition at 10 µM: -15.4%
V1a (h)
  % Inhibition: -12.5662%
[3]
  % Inhibition: 6.049%
Alpha 2A (h)
  inhibition at 10 µM: 4.48%
ETA (h)
  % Inhibition: -5.236%
MAO-A
  % Inhibition: -9.13%
Delta (DOP) (h)
  inhibition at 10 µM: 2.16%
5-HT transporter (h)
  % Inhibition: -16.9663%
Alpha 1A (h)
  inhibition at 10 µM: 11.5%
Dopamine transporter (h)
  % Inhibition: 10.0257%
5-HT1B
  % Inhibition: -16.7063%
5-HT2A (h)
  % Inhibition: -8.881%
NMDA
  % Inhibition: 12.6124%
A2A (h)
  % Inhibition: 53.628% and 53.6%
Beta 2 (h)
  % Inhibition: 11.3086%
D2S (h)
  inhibition at 10 µM: -7.81%
M1 (h)
  % Inhibition: 3.129%
Beta 1 (h)
  % Inhibition: 1.921%
CCK1 (CCKA) (h)
  % Inhibition: -2.038%
KV channel
  % Inhibition: -4.644%
5-HT1A (h)
  % Inhibition: -3.77%
[4]
  % Inhibition: -0.2461%
AR (h)
  % Inhibition: 4.241%
In vivo; ICR
  MTD at 72 h: ≥ 400 mg/kg
